# Test results taken from patent US11691981B2, “Heterocyclic compounds, preparation methods therefor, and methods of uses thereof” (INVENTISBIO CO., LTD., priority 2019, dated 2023).
# Key:
# TGFβR1 = TGFβR1 (Homo sapiens (Human), UniProt P36897); experiment: TGFβR1 kinase inhibition assay (ADP-Glo Kinase Assay); assay type: biochemical; conditions: 40 nM TGFβR1 in 2x enzyme mix, 5.4 μM ATP in 2x substrate mix, 120 min RT
# Experimental: TGFβR1 kinase assay was performed according to the instruction manual of the ADP-Glo™ Kinase Assay kit provided by Promega. Prepare 1× Kinase buffer (50 mM Tris pH7.5, 0.1% BSA, 10 mM MgCl2, 1 mM DTT). Before activation reaction was started, Compounds were dissolved in DMSO and make 100× solution with 3-fold serial dilution for a total of 10 concentrations. Transfer 50 nL compounds to 384-well plate according to plate map using the automated liquid handler. […] Add 5 μL ADP-Glo Reagent to terminate the kinase reaction and deplete the remaining ATP, incubate at RT for 60 minutes. Add 10 μL Kinase Detection Reagent to convert ADP to ATP and allow the newly synthesized ATP to be measured using a luciferin reaction, incubate at RT for 30 minutes. Collect luminescence data with Envision.
# pooled human hepatocytes = experiment: Human hepatocyte clearance study; assay type: in vitro ADME; conditions: human hepatocytes; for Human Hepatocyte Remaining Percentage @ 120 min: 0.5×10^6 viable cells/mL
# Experimental: (§1) The in vitro human hepatocyte clearance of compounds described here was studied using pooled human hepatocytes purchased from BioreclamationIVT (Westbury, N.Y., Cat #X008001, Lot #TQJ). The assay was conducted according to manufacturer's instruction. Briefly, 10 mM stock solutions of test compounds and positive control (Verapamil) were prepared in 100% DMSO. Thawing media (50 mL) used in the study consists of: 31 mL Williams E medium (GIBCO Cat #12551-032); 15 mL isotonic percoll (GE Healthcare Cat #17-0891-09); 500 uL 100× GlutaMax (GIBCO Cat #35050); 750 uL HEPES (GIBCO Cat #15630-080); 2.5 mL FBS (Corning Cat #35-076-CVR); 50 uL human insulin (GIBCO Cat #12585-014) and 5 uL dexamethasone (NICPBP). Incubation media is made of Williams E medium supplemented with 1× GlutaMax. Both thawing medium and incubation medium (serum-free) were placed in a 37° C. water bath for at least 15 minutes prior to use. Compound stock solutions were diluted to 100 μM by combining 198 μL of 50% acetonitrle/50% water and 2 μL of 10 mM stock solution. Verapamil was use as positive control in the assay. Vials of cryopreserved hepatocytes were removed from storage and thawed in a 37° C. water bath with gentle shaking. Contents of the vial were poured into the 50 mL thawing medium conical tube. Vials were centrifuged at 100 g for 10 minutes at room temperature. Thawing medium was aspirated and hepatocytes were re-suspended with serum-free incubation medium to yield ˜1.5×10^6 cells/mL. Hepatocyte viability and density were counted using a Trypan Blue exclusion, and then cells were diluted with serum-free incubation medium to a working cell density of 0.5×10^6 viable cells/mL. Then, a portion of the hepatocytes at 0.5×10^6 viable cells/mL was boiled for 5 minutes prior to adding to the plate as negative control to eliminate the enzymatic activity so that little or no substrate turnover should be observed. The boiled hepatocytes were used to prepare negative samples. Aliquots of 198 μL hepatocytes were dispensed into each well of a 96-well non-coated plate. The plate was placed in the incubator on an orbital shaker at 500 rpm for approximately 10 minutes. Aliquots of 2 μL of the 100 μM test compound or positive control were added into respective wells of the non-coated 96-well plate to start the reaction. This assay was performed in duplicate. The plate was incubated in the incubator on an orbital shaker at 500 rpm for the designated time points. Twenty-five microliter of contents were transferred and mixed with 6 volumes (150 μL) of cold acetonitrile with IS (200 nM imipramine, 200 nM labetalol and 200 nM diclofenac) to terminate the reaction at time points of 0, 15, 30, 60, 90 and 120 minutes. Samples were centrifuged at 3,220 g for 25 minutes and aliquots of 150 μL of the supernatants were used for LC-MS/MS analysis. For data analysis, all calculations were carried out using Microsoft Excel. Peak areas were determined from extracted ion chromatograms. The in vitro half-life (t1/2) of parent compound was determined by regression analysis of the percent parent disappearance vs. time curve. The in vitro half-life (in vitro ti) was determined from the slope value: in vitro t1/2=0.693/k. […] Scaling factors for in vivo intrinsic clearance prediction using human hepatocytes are listed as: liver weight (g liver/kg body weight): 25.7; hepatocyte concentration (10^6 cells/g liver): 99; scaling factor: 2544.3.
# [1] = Human hepatocyte clearance study; assay type: in vitro ADME; conditions: pooled cryopreserved human hepatocytes (suspension); for hepatocyte CLint at 1 µM / half-life at 1 µM: human; for hepatocyte CLint at 1 µM: read-out: Human In vitro Clint; for half-life at 1 µM: read-out: Human In vitro T1/2; for CLint scaled at 1 µM: human hepatocytes, scaling factor 2544.3, read-out: Human Scale-up Clint
# Experimental: as §1
# TGFβR2 = TGFβR2 (Homo sapiens (Human), UniProt P37173); experiment: TGFβR2 kinase inhibition assay (ADP-Glo); assay type: biochemical; conditions: 10 uM ATP, 120 min room temperature
# Sequence of TGFβR2 (P37173 23-567): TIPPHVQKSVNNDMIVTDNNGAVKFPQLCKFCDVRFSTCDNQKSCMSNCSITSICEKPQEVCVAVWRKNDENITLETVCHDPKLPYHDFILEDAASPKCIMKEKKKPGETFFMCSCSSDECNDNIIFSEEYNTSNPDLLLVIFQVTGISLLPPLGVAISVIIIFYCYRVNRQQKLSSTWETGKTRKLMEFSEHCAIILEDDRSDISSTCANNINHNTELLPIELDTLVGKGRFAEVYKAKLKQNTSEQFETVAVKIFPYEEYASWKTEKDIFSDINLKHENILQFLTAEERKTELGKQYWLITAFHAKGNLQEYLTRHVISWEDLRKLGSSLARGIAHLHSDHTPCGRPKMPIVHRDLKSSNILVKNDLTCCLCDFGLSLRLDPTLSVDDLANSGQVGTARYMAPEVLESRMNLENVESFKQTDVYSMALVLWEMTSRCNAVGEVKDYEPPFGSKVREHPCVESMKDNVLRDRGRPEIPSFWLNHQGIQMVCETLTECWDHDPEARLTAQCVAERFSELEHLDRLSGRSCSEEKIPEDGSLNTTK
# Experimental: The TGFβR2 enzyme reaction was carried out as follows: 50 nL of compound in DMSO (or DMSO controls) were stamped into 384 white, low-volume plates. 2.5 μL of 2× enzyme solution (final enzyme concentration was 3 ng/uL in 40 mMTris, 7.5; 20 mM MgCl2; 0.1 mg/mL BSA; 1 mM DTT) was dispensed into assay plate. The plate was then sealed and spun at 1000 rpm for 30 s and incubated at room temperature for 10 min. Followed by addition of 2.5 μL of 2× substrate solution that contains both ATP (to make a final concentration of 10 uM) and TGFβR2 substrate (final concentration of 0.2 ug/uL). The plate was then sealed and spun at 1000 rpm for 30 s and the reaction was then incubated at room temperature for 120 min. After that 5 μL ADP-Glo™ Reagent was added into the assay wells to stop the reaction and deplete unconsumed ATP for 40 min at room temperature; then, 10 μL of Detection Reagent was added into the assay wells, followed by 40 min incubation to develop luminescence. The luminescence signal was then collected on Envision 2104 plate reader.
# P-glycoprotein (MDR1) = experiment: P-glycoprotein substrate potential / permeability in MDR1-transfected MDCK cells; assay type: in vitro ADME; conditions: dog, pH 7.4; for Papp A→B at 2 h, 1 µM / Papp B→A at 2 h, 1 µM: MDCK-MDR1, 1 μM, two hours; for Papp A→B at 2 h, 1 µM: apical to basolateral; for Papp B→A at 2 h, 1 µM: basolateral to apical; for efflux ratio at 2 h, 1 µM: MDCK-MDR1, Papp (B-A)/Papp (A-B)
# Experimental: (§2) MDCK-MDR1 cells were seeded into 96-well HTS Transwell plate at the density of 5.45×10^5/cm^2. Cells were cultivated for 4-7 days before the transport assay. Transepithelial electrical resistance (TEER) of MDCK-MDR1 monolayer was measured before the experiment with the Millicell Epithelial Volt-Ohm measuring system.
# (§3) Transport assay: Cell monolayers were pre-incubated in transport medium (TM, HBSS with 25 mM HEPES, pH 7.4) for 30 min at 37° C. After preincubation, the study was initiated by adding the test compound to the donor side and TM to the receiver side. Compound transport was assessed at 1 μM in two directions (apical, AP to basolateral, BL and BL to AP) and the study was carried out in the presence and absence of P-gp inhibitor verapamil in both AP and BL compartments. After two hours incubation, aliquots of 50 μL from donor or receiver side were removed and mixed with 4 volumes of acetonitrile containing internal standards (200 nM alprazolam, 200 nM labetalol, 2 μM ketoprofen). Samples were analyzed by UPLC-MS/MS. All incubations were performed in duplicate. After the transport experiment, Lucifer Yellow leakage was measured in a fluorescence plate reader at 485 nm excitation and 530 nm emission.
# (§4) Data Analysis: All calculations were carried out using Microsoft Excel. Peak areas are determined from extracted ion chromatograms.
# (§5) The apparent permeability coefficient (Papp), in units of centimeter per second, was calculated for MDCK-MDR1 drug transport assays using the following equation: […]
# (§6) Where VA is the volume (in mL) in the acceptor well, Area is the surface area of the membrane (0.143 cm2 for Transwell-96 Well Permeable Supports), and time is the total transport time in seconds.
# (§7) The efflux ratio was determined using the following equation: […]
# (§8) Where Papp (B-A) indicates the apparent permeability coefficient in basolateral to apical direction, and Papp (A-B) indicates the apparent permeability coefficient in apical to basolateral direction.
# MDCK-MDR1 cells = experiment: as above; assay type: in vitro ADME
# Experimental: as §2, §3, §4, §5, §6, §7, §8
# Sequence of TGFβR1 (P36897 34-503): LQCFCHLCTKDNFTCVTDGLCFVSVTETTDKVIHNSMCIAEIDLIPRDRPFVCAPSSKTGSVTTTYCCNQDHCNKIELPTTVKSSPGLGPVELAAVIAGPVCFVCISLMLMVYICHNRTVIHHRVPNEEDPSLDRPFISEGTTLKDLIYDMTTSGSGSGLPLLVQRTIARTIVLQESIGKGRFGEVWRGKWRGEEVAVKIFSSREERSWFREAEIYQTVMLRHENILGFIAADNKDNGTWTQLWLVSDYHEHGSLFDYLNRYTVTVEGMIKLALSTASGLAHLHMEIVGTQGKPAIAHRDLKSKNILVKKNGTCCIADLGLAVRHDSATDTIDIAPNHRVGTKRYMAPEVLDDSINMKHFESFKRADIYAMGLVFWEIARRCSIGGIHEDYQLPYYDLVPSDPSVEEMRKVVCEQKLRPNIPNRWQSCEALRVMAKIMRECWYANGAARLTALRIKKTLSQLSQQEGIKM
Structure (SMILES),IC50 (TGFβR1) [nM],Human Hepatocyte Remaining Percentage @ 120 min (pooled human hepatocytes) [%],hepatocyte CLint at 1 µM [1] [µL/min/1e6 cells],half-life at 1 µM [1] [h],CLint scaled at 1 µM [1] [mL/min/kg],IC50 (TGFβR2) [nM],also measured
CC(C)(O)c1ccc(Nc2cc(Oc3cc(C(F)(F)F)nn3C3CCOCC3)ccn2)cn1 [Compound 11],24,71,5.7,4.03,14.6,> 100000,"Papp A→B at 2 h, 1 µM (P-glycoprotein (MDR1)): 7.38 ×10⁻⁶ cm/s; Papp B→A at 2 h, 1 µM (P-glycoprotein (MDR1)): 6.24 ×10⁻⁶ cm/s; efflux ratio at 2 h, 1 µM (P-glycoprotein (MDR1)): 0.85"
Cn1nc(C(F)(F)F)cc1Oc1ccnc(Nc2ccnc(C(C)(C)O)c2)c1 [Compound 23],38,88,2.2,10.4,5.6,–,–
CC(C)(O)c1cc(Nc2cc(Oc3cc(C(F)(F)F)nn3-c3ccccn3)ccn2)ccn1 [Compound 41],12,–,–,–,–,15000,"Papp A→B at 2 h, 1 µM (P-glycoprotein (MDR1)): 3.63 ×10⁻⁶ cm/s; Papp B→A at 2 h, 1 µM (P-glycoprotein (MDR1)): 4.88 ×10⁻⁶ cm/s; efflux ratio at 2 h, 1 µM (P-glycoprotein (MDR1)): 1.35"
Cc1ccc(Oc2ccnc(Nc3ccnc(C(C)(C)O)c3)c2)c(C)n1 [Compound 57],21,89,2.4,9.73,6,> 100000,"Papp A→B at 2 h, 1 µM (P-glycoprotein (MDR1)): 12.4 ×10⁻⁶ cm/s; Papp B→A at 2 h, 1 µM (P-glycoprotein (MDR1)): 18 ×10⁻⁶ cm/s; efflux ratio at 2 h, 1 µM (P-glycoprotein (MDR1)): 1.46"
CC(C)(O)c1cc(Nc2cc(Oc3cc(C(F)(F)F)nn3C3CCOCC3)ccn2)ccn1 [Compound 2],53,72,–,–,–,–,"Human In vitro Clint (pooled human hepatocytes): 5.6 μL/min/10^6 cells; Human In vitro T1/2 (pooled human hepatocytes): 4.1 h; Human Scale-up Clint (pooled human hepatocytes; scaling factor 2544.3): 14.3 mL/min/kg; Papp (A-B) (MDCK-MDR1 cells; MDCK-MDR1, 1 μM, apical to basolateral, two hours): 4.95 10^−6, cm/s; Papp (B-A) (MDCK-MDR1 cells; MDCK-MDR1, 1 μM, basolateral to apical, two hours): 14.87 10^−6, cm/s; Efflux Ratio (MDCK-MDR1 cells; MDCK-MDR1, Papp (B-A)/Papp (A-B)): 3.00"
N#Cc1ccc(Nc2cc(Oc3cc(C(F)(F)F)nn3C3CCOCC3)ccn2)cc1 [Compound 10],131,–,–,–,–,> 100000,–
CC(C)(O)c1cc(Nc2cc(Oc3cc(C(F)F)nn3C3CCOCC3)ccn2)ccn1 [Compound 8],173,–,–,–,–,> 100000,–
CC(C)(O)c1cc(Nc2cc(Oc3cc(C(F)(F)F)nn3C3CC3)ccn2)ccn1 [Compound 7],557,–,–,–,–,> 100000,–
CC(C)(O)c1cc(Nc2cc(Oc3cc(C4CC4)nn3[C@@H]3C[C@H]4CC[C@@H](C3)O4)ccn2)ccn1 [Compound 29],19,–,–,–,–,89000,–
NS(=O)(=O)c1ccc(Nc2cc(Oc3cc(C4CC4)nn3C3CC3)ccn2)cc1 [Compound 13],44,65,7.5,3.08,19,> 100000,–
CC(C)(O)c1cc(Nc2cc(Oc3cc(C(F)(F)F)nn3C3CCCNC3)ccn2)ccn1 (centres unmarked) [Compound 33],49,–,–,–,–,> 100000,–
CC(C)(O)c1cc(Nc2cc(Oc3cc(C4CC4)nn3C3CCOCC3)ncn2)ccn1 [Compound 3],825,–,–,–,–,> 100000,–
CC(C)(O)c1cc(Nc2cc(Oc3cccnc3C3CCOCC3)ccn2)ccn1 [Compound 54],56,61,6.8,3.38,17.4,> 100000,–
NS(=O)(=O)c1ccc(Nc2cc(Oc3cc(C(F)(F)F)nn3C3CCOCC3)ccn2)cc1 [Compound 12],28,64,7.7,3,19.6,> 100000,–
Cc1ccc(Oc2ccnc(Nc3ccnc(C(C)(C)O)c3)c2)c(C2CCOCC2)n1 [Compound 55],35,–,–,–,–,15000,–
CC(C)(O)c1cc(Nc2cc(Oc3cc(C(F)(F)F)nn3-c3ccccc3F)ccn2)ccn1 [Compound 38],18,–,–,–,–,15000,–
"CC(C)(O)c1cc(Nc2cc(Oc3cn(C4CC4)nc3C3CCOCC3)ccn2)ccn1 [Compound A, 2-(4-((4-((1-cyclopropyl-3-(tetrahydro-2H-pyran-4-yl)-1H-pyrazol-4-yl)oxy)pyridin-2-yl)amino)pyridin-2-yl)propan-2-ol, reference compound]",–,48,12.5,1.85,31.7,–,"Papp A→B at 2 h, 1 µM (P-glycoprotein (MDR1)): 2.75 ×10⁻⁶ cm/s; Papp B→A at 2 h, 1 µM (P-glycoprotein (MDR1)): 37.8 ×10⁻⁶ cm/s; efflux ratio at 2 h, 1 µM (P-glycoprotein (MDR1)): 13.7"
